Counter-ions that a name gives are not always drawn.
Legend:
[1] = system: methacholine-induced bronchoconstriction; experiment: Lung function in anaesthetised guinea-pigs, methacholine challenge; format: in vivo, Dunkin-Hartley guinea pig; conditions: tiotropium bromide 0.03 μg/kg intratracheal 2 hours prior; after 5 μg/kg i.v. methacholine
Method: Male Dunkin-Hartley guinea pigs (300-600 g) were weighed and dosed with vehicle (0.05M phosphate, 0.1% Tween 80, 0.6% saline, pH 6) or compound via the intratracheal route under recoverable gaseous anaesthesia (5% halothane in oxygen). Animals were dosed with compound or vehicle two hours prior to the administration of histamine or methacholine.
Guinea pigs were anaesthetised with pentobarbitone (1 mL/kg of 60 mg/mL solution i.p.) approximately 30 minutes prior to the first bronchoconstrictor administration. The trachea was cannulated and the animal ventilated using a constant volume respiratory pump (Harvard Rodent Ventilator model 683) at a rate of 60 breath/min and a tidal volume of 5 ml/lkg. […]
The animals were transferred to a Flexivent System (SCIREQ, Montreal, Canada) in order to measure airway resistance. […] Respiratory resistance was measured using the Flexivent “snapshot” facility (1 second duration, 1 Hz frequency). […] After each administration of bronchoconstrictor the peak resistance value was recorded. […] Percentage bronchoprotection produced by a compound was calculated at each dose of brochoconstrictor as follows:
Where % change Rveh is the mean of the maximum percentage change in airway resistance in the vehicle treated group. The results reported were measured after 5 μg/kg histamine or methacholine and were expressed as percentage bronchoprotection (mean±s.e.mean).

[2] = system: guinea pig trachea contracted with methacholine; experiment: Bronchodilator activity in guinea pig isolated tracheal ring preparation: onset measurements; conditions: rings contracted with methacholine 1 μM, mean±s.e.mean, n=4
Method: Guinea pigs (300-500 g) were killed by cervical dislocation and the trachea was isolated. The trachea was cut into segments 2-3 cartilage rings in width and suspended in 10 ml organ baths in modified Krebs' solution (mM; NaCl, 90; NaHCO3, 45; KCl, 5; MgSO4.7H2O, 0.5; Na2HPO4.2H2O, 1; CaCl2, 2.25; glucose, 10; pH 7.4) gassed with 5% CO2, 95% O2 at 37° C.). The tracheal rings were attached to an isometric force transducer for the measurement of isometric tension. The tissues were washed and a force of 1 g was applied to each tissue. The rings were contracted with methacholine (1 μM). Once the contraction had reached a plateau, vehicle (0.01% DMSO in distilled H2O), compound A (3 nM), roflumilast (1 μM) or a combination of compound A (3 nM) and roflumilast (1 μM) was added and the tissue left until the response had reached a plateau. Data were collected using the Chart 4 software (ADInstruments, Charlgrove, UK). The time to 90% of the maximum effect of the bronchodilator (onset time) was measured and expressed in min (mean±s.e.mean).

[3] = molecular target: T1, Adrenergic β2 (Homo sapiens, UniProt P07550); experiment: Adrenergic β2 mediated cAMP production in H292 cells (AlphaScreen); format: cell-based
T1 construct: Adherent H292 cells were removed from tissue culture flasks; endogenous in cells; host or cells: H292 cells
T1 sequence (P07550 whole entry): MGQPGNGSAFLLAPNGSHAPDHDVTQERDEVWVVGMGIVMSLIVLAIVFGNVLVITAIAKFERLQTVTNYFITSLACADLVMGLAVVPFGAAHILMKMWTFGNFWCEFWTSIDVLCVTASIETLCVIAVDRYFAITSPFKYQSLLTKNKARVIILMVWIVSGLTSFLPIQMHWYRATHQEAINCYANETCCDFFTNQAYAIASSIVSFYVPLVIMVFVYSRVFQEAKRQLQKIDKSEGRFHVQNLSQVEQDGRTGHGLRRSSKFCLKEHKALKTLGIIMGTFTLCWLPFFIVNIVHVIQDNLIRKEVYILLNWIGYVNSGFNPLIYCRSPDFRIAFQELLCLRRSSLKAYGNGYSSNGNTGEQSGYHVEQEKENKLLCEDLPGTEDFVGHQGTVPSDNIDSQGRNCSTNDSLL
Method: Adrenergic β2 Mediated cAMP Production
H292 cells were grown in 225 cm2 flasks incubator at 37° C., 5% CO2 in RPMI medium containing, 10% (v/v) FBS (foetal bovine serum) and 2 mM L-glutamine.
Adherent H292 cells were removed from tissue culture flasks by treatment with Accutase™ cell detachment solution for 15 minutes. Flasks were incubated for 15 minutes in a humidified incubator at 37° C., 5% CO2. Detached cells were re-suspended in RPMI media (containing 10% (v/v) FBS and […] L-glutamine) at 0.05×10^6 cells per 1 mL. 5000 cells in 100 μL were added to each well of a tissue-culture-treated 96-well plate and the cells incubated overnight in a humidified incubator at 37° C., 5% CO2. The culture media was removed and cells were washed twice with 100 μL assay buffer and replaced with 50 μL assay buffer (HBSS solution containing 10 mM HEPES pH7.4 and 5 mM glucose). […]
The concentration of cAMP (cyclic adenosine monophosphate) in the cell lysate was determined using AlphaScreen™ methodology. […] The AlphaScreen™ signal was measured using an EnVision spectrophotometer (Perkin-Elmer Inc.) with the recommended manufacturer's settings. cAMP concentrations were determined by reference to a calibration curve determined in the same experiment using standard cAMP concentrations. […] Intrinsic Activity was expressed as a fraction relative to the maximum activity determined for formoterol in each experiment. […]

[4] = system: LPS-induced intra-alveolar neutrophilia; experiment: Intra-alveolar neutrophil migration after intratracheal LPS challenge in the CRL:CD rat; format: in vivo; conditions: Compound W 3 ng/kg intratracheal 30 min prior to LPS 10 μg/kg; BAL 4 hr; mean±s.e.mean
Method: LPS challenge in CRL:CD rats causes an influx of neutrophils into the lungs. Under recoverable gaseous anaesthesia (5% isoflourane in oxygen), rats were dosed via the intatracheal route with vehicle (0.05M phosphate, 0.1% Tween 80, 0.6% saline, pH 6), or compound 30 min before challenge with an intratracheal dose of 10 μg/kg LPS.
The rats (250-400 g) were euthanized 4 hr after LPS challenge with 1 mL pentobarbitone sodium. A tracheotomy was performed and a calinula inserted. The airway was then lavaged using 3 mL Isoton at room temperature. The Isoton (BeckmanCoulter, High Wycombe, UK) was left in the airway for 10 seconds before being removed. The bronchio-alveolar lavage (BAL) fluid containing inflammatory cells was placed into a 15 mL centrifuge tube and kept on ice. This process was repeated three times. An aliquot of BAL fluid was removed and the inflammatory cells were counted on Sysmex (Sysmex UK, Milton Keynes). Neutrophils were expressed in millions/animal (mean±s.e.mean).

## C[N+]1(C)[C@@H]2C[C@@H](OC(=O)C(O)(c3cccs3)c3cccs3)C[C@H]1[C@@H]1O[C@@H]12 [tiotropium bromide, Tiotropium bromide]
[1]
  inhibition of methacholine-induced bronchoconstriction: 13%

## O=C(Nc1c(Cl)cncc1Cl)c1ccc(OC(F)F)c(OCC2CC2)c1 [roflumilast, 3-(cyclopropylmethoxy)-N-(3,5-dichloro-4-pyridinyl)-4-(difluoromethoxy)benzamide, reference compound]
[2]; roflumilast 1 μM
  onset time (time to 90% of the maximum effect of the bronchodilator): 26 ± 1.4 min

## CCN(CC)CCN(CCNCCc1ccc(O)c2[nH]c(=O)sc12)C(=O)CCOCCc1cccc2ccccc12 [N-[2-(Diethylamino)ethyl]-N-(2-{[2-(4-hydroxy-2-oxo-2,3-dihydro-1,3-benzothiazol-7-yl)ethyl]amino}ethyl)-3-[2-(1-naphthyl)ethoxy]propanamide]
[3]; over adrenergic α1D, adrenergic β1 and dopamine D2 activities
  selectivity of β2 adrenoceptor agonism: ≥ 10 fold

## CCN(CC)CCN(CCNCCc1ccc(O)c2[nH]c(=O)sc12)C(=O)CCOCCc1cccc2ccccc12 [Compound A, N-[2-(Diethylamino)ethyl]-N-(2-{[2-(4-hydroxy-2-oxo-2,3-dihydro-1,3-benzothiazol-7-yl)ethyl]amino}ethyl)-3-[2-(1-naphthyl)ethoxy]propanamide dihydrobromide]
[3]; Intrinsic Activity as fraction relative to the maximum activity of formoterol
  β2 Int Act: 0.8
[2]; compound A 3 nM
  onset time (time to 90% of the maximum effect of the bronchodilator): 16 ± 3.0 min

## CNC(=O)c1cc(Cl)c(OC(C)(C)C(=O)O)cc1OC[C@@H](O)CN1CCC2(CC1)Cc1cc(Cl)ccc1O2 [Compound W, 2-{2-Chloro-5-{[(2S)-3-(5-chloro-1′H,3H-spiro[1-benzofuran-2,4′-piperidin]-1′-yl)-2-hydroxypropyl]oxy}-4-[(methylamino)carbonyl]phenoxy}-2-methylpropanoic acid]
[4]
  BAL neutrophils: 6.3±1.1 million/animal

— patent publication US20100029732A1, “Combinations of Beta-2-Adrenoceptor Agonistic Benzothiazolone” (ASTRAZENECA AB, priority 2007, published 2010)
